The values below come from ChEMBL document CHEMBL1201862, “PubChem BioAssay data set” (2004).

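These data come from cells grown in 96-well plates and exposed to compound for 48 hours at five concentrations. The concentration for 50% growth inhibition is given as GI50.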 Active and inactive are the calls of the source. Cut-off read from the data, not from the text of the source: active = GI50 up to about 1.1 µM and inactive = higher.

Usually GI50 stands for the concentration that inhibits growth by half.

Some test systems named below: DU-145; EKVX; HL-60; HOP-62; IGROV-1; KM12; MDA-MB-435; MDA-N; NCI-H226; NCI-H522; OVCAR-3; OVCAR-8; PC-3; SF-539; SK-MEL-5; SK-OV-3; SN12C; SNB-19; TK-10; LOX IMVI.
Common to all, as to experiment: DTP human tumour cell line panel, 48 h

For the compound `CC(C)(Cl)C(Br)CC/C(=C/CCl)CBr.CC(C)(Cl)C(Br)CC/C(=C\CCl)CBr` (stereo not given), the GI50 in the assay on DU-145 was 3.32 µM (inactive); in the assay with EKVX, 8.97 µM (inactive); in the assay on HL-60 it was 0.802 µM (active); with HOP-62 it was 4.1 µM (inactive); in the assay on IGROV-1, 2.31 µM (inactive); in the assay with KM12 it was 1.83 µM (inactive). In addition, the GI50 is 2 µM (inactive) in the assay with MDA-MB-435; 1.64 µM (inactive) in the assay on MDA-N; 18.7 µM (inactive) with NCI-H226; 0.998 µM (active) in the assay with NCI-H522; 1.87 µM (inactive) in the assay on OVCAR-3; 2.06 µM (inactive) in the assay with OVCAR-8. Further, the GI50 with PC-3 is 2.61 µM (inactive); in the assay with SF-539, 1.88 µM (inactive); with SK-MEL-5 it was 3.1 µM (inactive); with SK-OV-3, 16.9 µM (inactive); in the assay on SN12C, 2.49 µM (inactive); in the assay on SNB-19, 2.1 µM (inactive). In the assay on TK-10, the GI50 is 2.26 µM (inactive).

As to `CC(C)=CCC/C(C)=C/COC(C)(C)C1=CCC(C)CC1.CC(C)=CCC/C(C)=C/COC1CC(C)CCC1=C(C)C` (stereo not given), the GI50 with DU-145 is > 100 µM (inactive); in the assay on EKVX it was > 100 µM (inactive); in the assay with HL-60, 22 µM (inactive); in the assay on HOP-62 it was > 100 µM (inactive); in the assay with IGROV-1 it was > 100 µM (inactive); in the assay with KM12, > 100 µM (inactive). The GI50 with MDA-MB-435, in the assay on MDA-N, in the assay on NCI-H522, in the assay with OVCAR-3, in the assay with OVCAR-8 and in the assay with PC-3 was > 100 µM (inactive) throughout. Moreover, the GI50 is 6.07 µM (inactive) in the assay on SF-539; > 100 µM (inactive) in the assay with SK-MEL-5; > 100 µM (inactive) with SK-OV-3; > 100 µM (inactive) in the assay on SN12C; > 100 µM (inactive) in the assay with SNB-19; > 100 µM (inactive) in the assay with TK-10.

Turning to `CC[C@@]1(O)C(=O)OCc2c1cc1n(c2=O)Cc2c-1nc1ccccc1c2/C=N\NC(=O)C(C)N` (stereo not given in full), the GI50 in the assay with DU-145 is 0.0401 µM (active); in the assay on EKVX, 11.9 µM (inactive); in the assay on HL-60, < 0.028 µM (active); in the assay with HOP-62 it was < 0.0266 µM (active); in the assay on IGROV-1, 1.13 µM (inactive); in the assay with KM12 it was 5.36 µM (inactive). For the same compound, the GI50 in the assay on LOX IMVI was 0.0254 µM (active); in the assay with MDA-MB-435, 1.61 µM (inactive); in the assay on MDA-N, 1.34 µM (inactive); in the assay on NCI-H226, 0.33 µM (active); in the assay on NCI-H522, 0.432 µM (active); in the assay with OVCAR-3 it was 7.06 µM (inactive). For the same compound, the GI50 is 0.0923 µM (active) with OVCAR-8; 1.91 µM (inactive) in the assay with PC-3; < 0.0116 µM (active) in the assay with SF-539; 0.238 µM (active) in the assay on SK-MEL-5; < 0.01 µM (active) in the assay on SN12C; 0.0233 µM (active) with SNB-19. Moreover, in the assay on TK-10, the GI50 was > 29.3 µM (inactive).

As to `CCCCNc1nc(N)nc(Nc2ccc(Br)cc2)c1N=O`, the GI50 is 96.8 µM (inactive) with DU-145; > 100 µM (inactive) in the assay on EKVX; 17.9 µM (inactive) in the assay with HL-60; 37.2 µM (inactive) with HOP-62; > 100 µM (inactive) in the assay on IGROV-1; > 100 µM (inactive) in the assay on KM12. Moreover, the GI50 in the assay with LOX IMVI is 31.6 µM (inactive); with MDA-MB-435, > 100 µM (inactive); with MDA-N it was > 100 µM (inactive); in the assay with NCI-H226, > 100 µM (inactive); in the assay on NCI-H522, 36.4 µM (inactive); in the assay on OVCAR-3, 56.5 µM (inactive). Further, the GI50 in the assay on OVCAR-8 was 70.5 µM (inactive); with PC-3 it was 67.5 µM (inactive); in the assay on SF-539 it was 80.2 µM (inactive); in the assay with SK-MEL-5 it was > 100 µM (inactive); in the assay with SN12C it was 58.7 µM (inactive); in the assay on SNB-19, > 100 µM (inactive). Moreover, the GI50 in the assay with TK-10 is > 100 µM (inactive).
